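Interpolation was linear, between the two tested concentrations surrounding the appropriate level; five concentrations were tested over 48 hours in 96-well plates. TGI denotes the concentration required for complete inhibition of growth.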
Tests used:
Assay in all cases: growth of human tumour cells (NCI), 48 h
[1] = tested on: 786-0 renal
[2] = tested on: A498 renal
[3] = tested on: A549 NSCLC
[4] = tested on: ACHN renal
[5] = tested on: BT-549 breast
[6] = tested on: CAKI-1 renal
[7] = tested on: CCRF-CEM leukemia
[8] = tested on: COLO 205 colon
[9] = tested on: DU-145 prostate
[10] = tested on: EKVX NSCLC
[11] = tested on: HCC-2998 colon
[12] = tested on: HCT-116 colon
[13] = tested on: HCT-15 colon
[14] = tested on: HL-60(TB) leukemia
[15] = tested on: HOP-62 NSCLC
[16] = tested on: HOP-92 NSCLC
[17] = tested on: HS 578T breast
[18] = tested on: HT29 colon
[19] = tested on: IGROV1 ovarian
[20] = tested on: K-562 leukemia
[21] = tested on: KM12 colon
[22] = tested on: LOX IMVI melanoma
[23] = tested on: M14 melanoma
[24] = tested on: MALME-3M melanoma
[25] = tested on: MCF7 breast
[26] = tested on: MDA-MB-231 breast
[27] = tested on: MDA-MB-435
[28] = tested on: MDA-N
[29] = tested on: MOLT-4 leukemia
[30] = tested on: NCI-H226 lung
[31] = tested on: NCI-H23 lung
[32] = tested on: NCI-H460 lung
[33] = tested on: NCI-H522 lung
[34] = tested on: NCI/ADR-RES ovarian
[35] = tested on: OVCAR-3 ovarian
[36] = tested on: OVCAR-4 ovarian
[37] = tested on: OVCAR-5 ovarian
[38] = tested on: OVCAR-8 ovarian
[39] = tested on: PC-3 prostate
[40] = tested on: RPMI-8226 leukemia
[41] = tested on: RXF 393 renal
[42] = tested on: SF-268 CNS
[43] = tested on: SF-295 CNS
[44] = tested on: SF-539 CNS
[45] = tested on: SK-MEL-2 melanoma
[46] = tested on: SK-MEL-28 melanoma
[47] = tested on: SK-MEL-5 melanoma
[48] = tested on: SK-OV-3 ovarian
[49] = tested on: SN12C renal
[50] = tested on: SNB-19 CNS
[51] = tested on: SNB-75 CNS
[52] = tested on: SR leukemia
[53] = tested on: SW-620 colon
[54] = tested on: T-47D breast
[55] = tested on: TK-10 renal
[56] = tested on: U251 CNS
[57] = tested on: UACC-257 melanoma
[58] = tested on: UACC-62 melanoma
[59] = tested on: UO-31 renal

OCCCNCC(O)c1ccc(OCc2ccccc2)c(OCc2ccccc2)c1 (stereo unspecified)
TGI [1]: 14.3 µM
TGI [2]: 25.8 µM
TGI [3]: 26.3 µM
TGI [4]: 23.8 µM
TGI [5]: 31.9 µM
TGI [6]: 32.5 µM
TGI [7]: 17.5 µM
TGI [8]: 10.2 µM
TGI [9]: 30.8 µM
TGI [10]: 30.4 µM
TGI [11]: 10 µM
TGI [12]: 18.3 µM
TGI [13]: 27.5 µM
TGI [14]: 21.4 µM
TGI [15]: 28.8 µM
TGI [16]: 24.1 µM
TGI [17]: 35.6 µM
TGI [18]: 16 µM
TGI [19]: 23.4 µM
TGI [20]: 33.5 µM
TGI [21]: 26 µM
TGI [22]: 13.7 µM
TGI [23]: 31.5 µM
TGI [24]: 29.7 µM
TGI [25]: 16 µM
TGI [26]: 28.7 µM
TGI [27]: 15.2 µM
TGI [28]: 21.6 µM
TGI [29]: 19.2 µM
TGI [30]: 29.7 µM
TGI [31]: 33.3 µM
TGI [32]: 15.8 µM
TGI [33]: 30 µM
TGI [34]: 37.2 µM
TGI [35]: 30.4 µM
TGI [36]: 18.3 µM
TGI [37]: 29.5 µM
TGI [38]: 26.6 µM
TGI [39]: 25.4 µM
TGI [40]: 19.9 µM
TGI [41]: 42.7 µM
TGI [42]: 30.9 µM
TGI [43]: 20.8 µM
TGI [44]: 27.2 µM
TGI [45]: 15.1 µM
TGI [46]: 20.4 µM
TGI [47]: 13.5 µM
TGI [48]: 24.4 µM
TGI [49]: 29.7 µM
TGI [50]: 38.5 µM
TGI [51]: 14.1 µM
TGI [52]: 28 µM
TGI [53]: 15.8 µM
TGI [54]: 34.4 µM
TGI [55]: 15.8 µM
TGI [56]: 23.1 µM
TGI [57]: 25.6 µM
TGI [58]: 42.8 µM
TGI [59]: 28.8 µM

O=C(O)CCC(=O)C(=O)O
TGI [1]: > 100 µM
TGI [2]: > 100 µM
TGI [3]: > 100 µM
TGI [4]: > 100 µM
TGI [5]: > 100 µM
TGI [6]: > 100 µM
TGI [7]: > 100 µM
TGI [8]: > 100 µM
TGI [9]: > 100 µM
TGI [10]: > 100 µM
TGI [11]: > 100 µM
TGI [12]: > 100 µM
TGI [13]: > 100 µM
TGI [14]: > 100 µM
TGI [15]: > 100 µM
TGI [16]: > 100 µM
TGI [17]: > 100 µM
TGI [18]: > 100 µM
TGI [19]: > 100 µM
TGI [20]: > 100 µM
TGI [21]: > 100 µM
TGI [22]: > 100 µM
TGI [23]: > 100 µM
TGI [24]: > 100 µM
TGI [25]: > 100 µM
TGI [26]: > 100 µM
TGI [27]: > 100 µM
TGI [28]: > 100 µM
TGI [29]: > 100 µM
TGI [30]: > 100 µM
TGI [31]: > 100 µM
TGI [32]: > 100 µM
TGI [33]: > 100 µM
TGI [34]: > 100 µM
TGI [35]: > 100 µM
TGI [36]: > 100 µM
TGI [37]: > 100 µM
TGI [38]: > 100 µM
TGI [39]: > 100 µM
TGI [40]: > 100 µM
TGI [41]: > 100 µM
TGI [42]: > 100 µM
TGI [43]: > 100 µM
TGI [44]: > 100 µM
TGI [45]: > 100 µM
TGI [46]: > 100 µM
TGI [47]: > 100 µM
TGI [48]: > 100 µM
TGI [49]: > 100 µM
TGI [50]: > 100 µM
TGI [51]: > 100 µM
TGI [52]: > 100 µM
TGI [53]: > 100 µM
TGI [54]: > 100 µM
TGI [55]: > 100 µM
TGI [56]: > 100 µM
TGI [57]: > 100 µM
TGI [58]: > 100 µM
TGI [59]: > 100 µM

O=S(=O)(O)c1ccc2c(N=Nc3cccc4ccccc34)c(O)c(S(=O)(=O)O)cc2c1
TGI [1]: > 100 µM
TGI [2]: > 100 µM
TGI [3]: > 100 µM
TGI [4]: > 100 µM
TGI [5]: > 100 µM
TGI [6]: > 100 µM
TGI [7]: > 100 µM
TGI [8]: > 100 µM
TGI [9]: > 100 µM
TGI [10]: > 100 µM
TGI [11]: > 100 µM
TGI [12]: > 100 µM
TGI [13]: > 100 µM
TGI [14]: > 100 µM
TGI [15]: > 100 µM
TGI [16]: > 100 µM
TGI [17]: > 100 µM
TGI [18]: > 100 µM
TGI [19]: > 100 µM
TGI [20]: > 100 µM
TGI [21]: > 100 µM
TGI [22]: > 100 µM
TGI [23]: > 100 µM
TGI [24]: > 100 µM
TGI [25]: > 100 µM
TGI [26]: > 100 µM
TGI [27]: > 100 µM
TGI [28]: > 100 µM
TGI [29]: > 100 µM
TGI [30]: > 100 µM
TGI [31]: > 100 µM
TGI [32]: > 100 µM
TGI [33]: > 100 µM
TGI [34]: > 100 µM
TGI [35]: > 100 µM
TGI [36]: > 100 µM
TGI [37]: > 100 µM
TGI [38]: > 100 µM
TGI [39]: > 100 µM
TGI [40]: > 100 µM
TGI [41]: > 100 µM
TGI [42]: > 100 µM
TGI [43]: > 100 µM
TGI [44]: > 100 µM
TGI [45]: > 100 µM
TGI [46]: > 100 µM
TGI [47]: > 100 µM
TGI [48]: > 100 µM
TGI [49]: > 100 µM
TGI [50]: > 100 µM
TGI [51]: > 100 µM
TGI [52]: > 100 µM
TGI [53]: > 100 µM
TGI [54]: > 100 µM
TGI [55]: > 100 µM
TGI [56]: > 100 µM
TGI [57]: > 100 µM
TGI [58]: > 100 µM
TGI [59]: > 100 µM

O=c1[nH]c2cc(Cl)ccc2nc1/C(=N/Nc1ccccc1)C(O)c1ccco1 (stereo unspecified)
TGI [1]: > 100 µM
TGI [2]: > 100 µM
TGI [3]: > 100 µM
TGI [4]: > 100 µM
TGI [5]: > 100 µM
TGI [6]: > 100 µM
TGI [7]: > 100 µM
TGI [8]: > 100 µM
TGI [9]: > 100 µM
TGI [10]: > 100 µM
TGI [11]: > 100 µM
TGI [12]: > 100 µM
TGI [13]: > 100 µM
TGI [14]: > 100 µM
TGI [15]: > 100 µM
TGI [16]: > 100 µM
TGI [17]: > 100 µM
TGI [18]: > 100 µM
TGI [19]: > 100 µM
TGI [20]: > 100 µM
TGI [21]: > 100 µM
TGI [22]: > 100 µM
TGI [23]: > 100 µM
TGI [24]: > 100 µM
TGI [25]: > 100 µM
TGI [26]: > 100 µM
TGI [27]: > 100 µM
TGI [28]: > 100 µM
TGI [29]: > 100 µM
TGI [30]: > 100 µM
TGI [31]: > 100 µM
TGI [32]: > 100 µM
TGI [33]: > 100 µM
TGI [34]: > 100 µM
TGI [35]: > 100 µM
TGI [36]: > 100 µM
TGI [37]: > 100 µM
TGI [38]: > 100 µM
TGI [39]: > 100 µM
TGI [40]: > 100 µM
TGI [41]: > 100 µM
TGI [42]: > 100 µM
TGI [43]: > 100 µM
TGI [44]: > 100 µM
TGI [45]: > 100 µM
TGI [46]: > 100 µM
TGI [47]: > 100 µM
TGI [48]: > 100 µM
TGI [49]: > 100 µM
TGI [50]: > 100 µM
TGI [51]: > 100 µM
TGI [52]: > 100 µM
TGI [53]: > 100 µM
TGI [54]: > 100 µM
TGI [55]: > 100 µM
TGI [56]: > 100 µM
TGI [57]: > 100 µM
TGI [58]: > 100 µM
TGI [59]: > 100 µM
